From patent publication US9808482B2, “Sulphated hyaluronic acids as regulator agents of the cytokine activity” (FIDIA FARMACEUTICI S.p.A., priority 2009, dated 2017)

Tests used:
[1] = test system: Vesicular stomatitis virus; format: cell-based; conditions: E6SM cells; samples average MW 200 KD; FIG. 11
IL-6 receptor = biological target: T1, IL-6 receptor (Homo sapiens, UniProt P08887); test: Inhibition of the binding of 125I-IL-6 to its receptor on human myeloma U266 (radioligand binding); conditions: HAS degree 3, both medium and low MW; U266 cells, 1 mg/ml, 125I-IL-6 0.08 nM, 4° C. 16 hours; FIG. 5
T1 construct: the line of human myeloma U266 was used, sensitive to the cytotoxic activity of IL-6, expressing its relative receptor; endogenous in cells; host or cells: U266 human myeloma cells
T1 sequence (P08887 20-468): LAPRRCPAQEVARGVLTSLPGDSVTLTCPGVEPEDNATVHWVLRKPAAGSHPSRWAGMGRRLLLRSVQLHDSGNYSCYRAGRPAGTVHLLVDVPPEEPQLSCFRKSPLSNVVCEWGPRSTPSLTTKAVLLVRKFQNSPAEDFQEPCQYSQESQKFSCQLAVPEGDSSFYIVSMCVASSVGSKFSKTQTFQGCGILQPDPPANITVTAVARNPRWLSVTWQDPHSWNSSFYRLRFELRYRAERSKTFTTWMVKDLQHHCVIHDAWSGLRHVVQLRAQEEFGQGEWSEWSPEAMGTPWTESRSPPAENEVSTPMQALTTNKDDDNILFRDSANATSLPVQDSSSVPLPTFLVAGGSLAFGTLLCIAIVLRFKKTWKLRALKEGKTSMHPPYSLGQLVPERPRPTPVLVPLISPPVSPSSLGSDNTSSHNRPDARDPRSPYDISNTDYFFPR
Method: The experimental procedure was effected as described in Taga T. et al., J Exp Med, 1987, 166:967-981. In short, the line of human myeloma U266 was used, sensitive to the cytotoxic activity of IL-6, expressing its relative receptor. […] At the end of the incubation, the cells were washed with phosphate buffer, centrifuged at 9,000 rpm and the pellet counted in a γ-counter.

IL-10 = test: Protein synthesis of IL-10 in human PBMC; format: cell-based; conditions: 0.1 or 1 mg/ml, 24 hours, FIG. 9 (HAS1, HAS3)
Method: For these experimentations, mononucleate cells of human peripheral blood (PBMC) were adopted, deriving from many different donors for evaluating the effect of HAS on the production of the cytokines listed above, using: • non-sulfated HA (average MW: 200 KD), • HAS1 and HAS3 (prepared as described in Examples 1-3 (average MW: 200 KD). […] At day zero 100,000 cells were seeded per well (using plates with 96 wells) in 200 μl of medium RPMI 1640, to which 10% of fetal bovine serum, HEPES 10 mM, Glutamine 2 mM, 1% Penicillin-Streptomycin 100 U/ml, had been added. The effect of all the samples was evaluated on non-treated PBMC with agents which stimulate the synthesis of cytokines, or stimulated with Lipopolysaccharide LPS (10 μg/ml) (highly pro-inflammatory) or with Phytohemagglutinin PHA (10 μg/ml) (a substance capable of stimulating the lymphocytes to divide themselves), both agents capable of stimulating the synthesis of cytokines. The cells were treated separately with the three compounds at a concentration of 0.1 mg/ml or 1 mg/ml. After 24 hours of incubation at 37° C. […] The quantification of the inflammation mediators was effected by means of the SearchLight® technology, using a Custom Human 9-Plex Array plate following the protocol indicated by the supplier in the technical card.

IL-1 receptor = biological target: T2, IL-1 receptor (Mus musculus, UniProt P13504); test: Inhibition of the binding of 125I-IL-1 to its receptor on 3T3 fibroblasts (radioligand binding); parameters: species or system mice; conditions: HAS degree 3, both medium and low MW; 3T3 cells, 1 mg/ml, 125I-IL-1 10 pM, 37° C. 2 hours; FIG. 4
T2 construct: the line of murine fibroblasts 3T3 was used, sensitive to the cytotoxic activity of IL-1, expressing its relative receptor; endogenous in cells; host or cells: 3T3 murine fibroblasts
T2 sequence (P13504 20-576): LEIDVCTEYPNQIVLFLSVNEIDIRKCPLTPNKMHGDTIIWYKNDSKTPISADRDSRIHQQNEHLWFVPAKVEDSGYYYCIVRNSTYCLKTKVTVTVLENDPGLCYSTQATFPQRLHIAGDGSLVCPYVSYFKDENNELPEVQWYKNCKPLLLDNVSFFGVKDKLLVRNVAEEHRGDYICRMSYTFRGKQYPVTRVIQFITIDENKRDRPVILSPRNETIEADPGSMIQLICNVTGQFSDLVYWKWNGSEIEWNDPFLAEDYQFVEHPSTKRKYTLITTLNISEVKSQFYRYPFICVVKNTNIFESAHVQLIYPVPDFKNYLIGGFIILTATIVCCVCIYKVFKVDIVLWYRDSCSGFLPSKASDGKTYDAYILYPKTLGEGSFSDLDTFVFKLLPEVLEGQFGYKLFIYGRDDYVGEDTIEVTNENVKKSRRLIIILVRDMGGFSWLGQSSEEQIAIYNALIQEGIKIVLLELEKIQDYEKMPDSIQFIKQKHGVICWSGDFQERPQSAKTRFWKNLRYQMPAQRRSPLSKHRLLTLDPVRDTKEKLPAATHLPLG
Method: The experimental procedure was effected as described in Chin J et al., J Exp Med, 1987, 165:70-86. In short, the line of murine fibroblasts 3T3 was used, sensitive to the cytotoxic activity of IL-1, expressing its relative receptor. […] At the end of the incubation, the cells were washed with phosphate buffer, then dissolved in 2.5 M of NaOH and counted in a γ-counter.

Nc1nc2c(ncn2COCCO)c(=O)[nH]1 [acyclovir]
antiviral activity vs VSV (inhibition of cytopathogenicity) [1]: inactive

sulfated hyaluronic acid [HAS]
inhibition of the binding of IL-6 to its receptor (IL-6 receptor): up to 100% | production of IL-10 (IL-10): evident stimulus | inhibition of the binding of IL-1 to its receptor (IL-1 receptor): 30%
